{"source": "paper PMC5620609", "about": "(Pharmaceuticals, 2017)", "key": {"SK-OV-3": {"tested_on": "SK-OV-3", "experiment": "NCI 60 cell line panel: SK-OV-3", "type": "cell-based, human", "details": "Ovarian cancer, TP53 null/mutant", "excerpt": "(§1) Details of the NCI 60 One Dose Screen are well known and available online."}, "THP-1 cells": {"tested_on": "THP-1 cells", "experiment": "Morphology (Giemsa stain) of THP-1 cells", "type": "cell-based, human", "details": "6 days following exposure"}, "A498": {"tested_on": "A498", "experiment": "NCI 60 cell line panel: A498", "type": "cell-based, human", "details": "Renal cancer, TP53 wild type", "excerpt": "as §1"}, "HCT-15": {"tested_on": "HCT-15", "experiment": "NCI 60 cell line panel: HCT-15", "type": "cell-based, human", "details": "Colon cancer, TP53 null/mutant", "excerpt": "as §1"}, "DNMT1": {"molecular_target": "DNMT1 (Homo sapiens, UniProt P26358)", "sequence (P26358 whole entry)": "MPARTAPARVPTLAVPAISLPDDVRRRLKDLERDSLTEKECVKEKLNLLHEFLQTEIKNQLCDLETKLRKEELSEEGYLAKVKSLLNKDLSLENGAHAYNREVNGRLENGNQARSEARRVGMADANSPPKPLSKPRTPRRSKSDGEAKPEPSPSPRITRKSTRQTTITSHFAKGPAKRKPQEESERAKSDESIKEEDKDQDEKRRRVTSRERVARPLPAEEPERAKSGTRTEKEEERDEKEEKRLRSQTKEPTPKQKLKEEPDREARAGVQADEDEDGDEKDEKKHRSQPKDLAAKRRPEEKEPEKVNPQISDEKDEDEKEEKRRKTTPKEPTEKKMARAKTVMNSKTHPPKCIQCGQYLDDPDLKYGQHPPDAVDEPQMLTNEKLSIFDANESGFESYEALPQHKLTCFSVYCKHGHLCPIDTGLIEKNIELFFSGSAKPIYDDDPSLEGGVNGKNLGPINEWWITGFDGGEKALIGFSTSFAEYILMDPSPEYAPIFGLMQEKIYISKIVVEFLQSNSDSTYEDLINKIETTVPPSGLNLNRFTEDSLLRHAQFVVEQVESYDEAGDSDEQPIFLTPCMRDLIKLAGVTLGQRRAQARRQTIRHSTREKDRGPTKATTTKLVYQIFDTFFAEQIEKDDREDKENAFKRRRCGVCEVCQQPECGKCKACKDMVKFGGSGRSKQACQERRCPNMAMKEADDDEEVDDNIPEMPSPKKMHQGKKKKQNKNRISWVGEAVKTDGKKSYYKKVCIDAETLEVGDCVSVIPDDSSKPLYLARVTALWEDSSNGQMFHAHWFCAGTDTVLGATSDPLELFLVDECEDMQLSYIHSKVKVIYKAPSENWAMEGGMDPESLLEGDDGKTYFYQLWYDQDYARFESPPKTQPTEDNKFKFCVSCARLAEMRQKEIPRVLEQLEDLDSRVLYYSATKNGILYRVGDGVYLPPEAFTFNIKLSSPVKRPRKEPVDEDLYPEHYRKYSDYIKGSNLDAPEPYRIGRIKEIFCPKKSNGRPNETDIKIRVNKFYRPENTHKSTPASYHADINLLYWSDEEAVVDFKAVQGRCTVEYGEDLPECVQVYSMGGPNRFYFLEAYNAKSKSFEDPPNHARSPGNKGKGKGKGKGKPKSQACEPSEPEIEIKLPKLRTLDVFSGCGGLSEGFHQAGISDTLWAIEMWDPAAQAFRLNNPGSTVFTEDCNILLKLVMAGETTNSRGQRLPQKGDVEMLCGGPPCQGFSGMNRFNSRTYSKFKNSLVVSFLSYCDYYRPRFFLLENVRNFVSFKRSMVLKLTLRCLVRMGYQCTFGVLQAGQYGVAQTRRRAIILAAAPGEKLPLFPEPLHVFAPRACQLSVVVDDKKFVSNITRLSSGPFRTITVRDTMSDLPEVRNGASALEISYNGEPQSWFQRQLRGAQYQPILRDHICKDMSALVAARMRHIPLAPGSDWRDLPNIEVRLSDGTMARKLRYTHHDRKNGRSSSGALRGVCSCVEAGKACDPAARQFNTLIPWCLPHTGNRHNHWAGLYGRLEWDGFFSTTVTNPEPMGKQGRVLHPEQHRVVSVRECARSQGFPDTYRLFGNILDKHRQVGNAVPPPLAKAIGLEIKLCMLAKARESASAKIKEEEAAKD", "experiment": "Western blot for DNMT1, THP-1 cells", "type": "cell-based", "parameters": "cytoplasmic and nuclear protein extracts from cells; endogenous in cells; host or cells: THP-1", "details": "0.1 and 0.2 µM, 6 days after exposure", "procedure": "Cells were co-stained with Annexin-V and PI on day 2 and analyzed by flow cytometry.\nApproximately 100 µg of cytoplasmic and nuclear protein extracts from cells, together with molecular weight markers, were subjected to SDS-PAGE on 4–12% gradient gels (Invitrogen, Carlsbad, CA, USA) followed by transfer to polyvinylidene fluoride membranes (Invitrogen). Blots were probed using antibodies for DNMT1 (Abcam ab16632)."}, "NCI-H522": {"tested_on": "NCI-H522", "experiment": "NCI 60 cell line panel: NCI-H522", "type": "cell-based, human", "details": "NSCL, TP53 null/mutant", "excerpt": "as §1"}, "[1]": {"details": "nude mice; same schedule", "experimental": "Three mice were placed in a dose group on the first day of treatment (Day 1). […] Animals were observed daily for mortality and moribundity. Body weights were measured daily starting on day 1."}, "PC-3": {"tested_on": "PC-3", "experiment": "NCI 60 cell line panel: PC-3", "type": "cell-based, human", "details": "Prostate cancer, TP53 null/mutant", "excerpt": "as §1"}, "CCRF-CEM": {"tested_on": "CCRF-CEM", "experiment": "NCI 60 cell line panel: CCRF-CEM", "type": "cell-based, human", "details": "Leukemia, TP53 null/mutant", "excerpt": "as §1"}, "HOP-92": {"tested_on": "HOP-92", "experiment": "NCI 60 cell line panel: HOP-92", "type": "cell-based, human", "details": "NSCL, TP53 null/mutant", "excerpt": "as §1"}, "A549/ATCC": {"tested_on": "A549/ATCC", "experiment": "NCI 60 cell line panel: A549/ATCC", "type": "cell-based, human", "details": "NSCL, TP53 wild type", "excerpt": "as §1"}, "786-0": {"tested_on": "786-0", "experiment": "NCI 60 cell line panel: 786-0", "type": "cell-based, human", "details": "Renal cancer, TP53 null/mutant", "excerpt": "as §1"}, "NCI 60 cell line panel": {"tested_on": "NCI 60 cell line panel", "experiment": "NCI 60 cell line panel, allocation of cell lines by growth inhibition at 10 µM", "type": "cell-based, human", "excerpt": "as §1"}, "UACC-257": {"tested_on": "UACC-257", "experiment": "NCI 60 cell line panel: UACC-257", "type": "cell-based, human", "details": "Melanoma, TP53 wild type", "excerpt": "as §1"}, "DU-145": {"tested_on": "DU-145", "experiment": "NCI 60 cell line panel: DU-145", "type": "cell-based, human", "details": "Prostate cancer, TP53 null/mutant", "excerpt": "as §1"}, "SK-MEL-28": {"tested_on": "SK-MEL-28", "experiment": "NCI 60 cell line panel: SK-MEL-28", "type": "cell-based, human", "details": "Melanoma, TP53 null/mutant", "excerpt": "as §1"}, "CAKI-1": {"tested_on": "CAKI-1", "experiment": "NCI 60 cell line panel: CAKI-1", "type": "cell-based, human", "details": "Renal cancer, TP53 wild type", "excerpt": "as §1"}, "[2]": {"tested_on": "human colon cancer cell line HCT-116", "experiment": "In vitro growth inhibition (CellTiter-Glo), HCT-116", "type": "cell-based", "details": "HCT 116 TP53(-/-), read-out: GI50 (concentration of drug that inhibited 50% of cell growth), 72 h exposure", "procedure": "Cells were grown in an appropriate medium for the cell line of interest; 96 well plates of each cell line were seeded with 5000 cells per well and left overnight. Drug exposed cells were incubated at 37 °C for 72 h. At the end of the 72 h exposure period, plates were removed for the CellTiter-Glo® assay. Luminescence was recorded on a Synergy 4.0. Assays were performed in triplicate."}, "LOX IMVI": {"tested_on": "LOX IMVI", "experiment": "NCI 60 cell line panel: LOX IMVI", "type": "cell-based, human", "details": "Melanoma, TP53 wild type", "excerpt": "as §1"}, "OVCAR-8": {"tested_on": "OVCAR-8", "experiment": "NCI 60 cell line panel: OVCAR-8", "type": "cell-based, human", "details": "Ovarian cancer, TP53 null/mutant", "excerpt": "as §1"}, "[3]": {"details": "55 cell lines tested for both compounds"}}}
{"compound": "Nc1ncn([C@@H]2O[C@H](CO)[C@@H](O)C2(F)F)c(=O)n1", "note": "[NUC013, 5-aza-2′,2′-difluroro deoxycytidine]", "values": [{"measurement": "Growth (%) at 10 µM", "setting": "SK-OV-3", "value": 71.09, "unit": "%"}, {"measurement": "morphologic changes", "setting": "THP-1 cells", "value": "morphologic changes suggestive of cell differentiation"}, {"measurement": "Growth (%) at 10 µM", "setting": "A498", "value": 38.04, "unit": "%"}, {"measurement": "Growth (%) at 10 µM", "setting": "HCT-15", "value": 52.19, "unit": "%"}, {"measurement": "DNMT1 inhibition by western blot", "setting": "DNMT1", "value": "comparable to decitabine"}, {"measurement": "Growth (%) at 10 µM", "setting": "NCI-H522", "value": 86.91, "unit": "%"}, {"measurement": "difference in MTD versus decitabine", "setting": "[1]", "value": "greater than 24 fold"}, {"measurement": "Growth (%) at 10 µM", "setting": "PC-3", "value": 63.57, "unit": "%"}, {"measurement": "Growth (%) at 10 µM", "setting": "CCRF-CEM", "value": 23.67, "unit": "%"}, {"measurement": "Growth (%) at 10 µM", "setting": "HOP-92", "value": 34.34, "unit": "%"}, {"measurement": "Growth (%) at 10 µM", "setting": "A549/ATCC", "value": 37.91, "unit": "%"}, {"measurement": "Growth (%) at 10 µM", "setting": "786-0", "value": 26.29, "unit": "%"}, {"measurement": "Number of cell lines with growth inhibition at 10 µM >50%", "setting": "NCI 60 cell line panel; [3]", "value": 24}, {"measurement": "Number of cell lines with growth inhibition at 10 µM ≤50%", "setting": "NCI 60 cell line panel; [3]", "value": 31}, {"measurement": "Number of cell lines with growth inhibition at 10 µM >50%", "setting": "NCI 60 cell line panel; TP53 (Null/Mutant) cell lines", "value": 13}, {"measurement": "Number of cell lines with growth inhibition at 10 µM ≤50%", "setting": "NCI 60 cell line panel; TP53 (Null/Mutant) cell lines", "value": 27}, {"measurement": "Number of cell lines with growth inhibition at 10 µM >50%", "setting": "NCI 60 cell line panel; TP53 (WT) cell lines", "value": 11}, {"measurement": "Number of cell lines with growth inhibition at 10 µM ≤50%", "setting": "NCI 60 cell line panel; TP53 (WT) cell lines", "value": 4}, {"measurement": "Growth (%) at 10 µM", "setting": "UACC-257", "value": 77.54, "unit": "%"}, {"measurement": "Growth (%) at 10 µM", "setting": "DU-145", "value": 43.48, "unit": "%"}, {"measurement": "Growth (%) at 10 µM", "setting": "SK-MEL-28", "value": 78.46, "unit": "%"}, {"measurement": "Growth (%) at 10 µM", "setting": "CAKI-1", "value": 27.86, "unit": "%"}, {"measurement": "GI50", "setting": "[2]", "value": 4.54, "unit": "µM"}, {"measurement": "Growth (%) at 10 µM", "setting": "LOX IMVI", "value": 34.53, "unit": "%"}, {"measurement": "Growth (%) at 10 µM", "setting": "OVCAR-8", "value": 49.95, "unit": "%"}]}
